The values that follow come from patent US11478451B1, “Macrocyclic chlorine substituted indole derivatives” (Bayer Aktiengesellschaft, priority 2017, dated 2022).

For one assay, the system named is AMO-1 cells. The assay can be described thus: Antiproliferation assay (CellTiter-Glo, 72 h), AMO-1. It is filed as cell-based. To be noted: IC50, median, AMO-1, 72 h, read-out: Antiproli AMO-1 [M] median. In outline:
(§1)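 A reference plate measured at day 0 set the time-zero baseline. Treated plates were read by CellTiter-Glo luminescence after 72 h of compound exposure at 37°C in a humidified incubator.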
(In general: Cellular ATP, detected with luciferase, serves as a proxy for viable cell number.)

In assay [1] the test system is SUDHL5 cells. Briefly: Antiproliferation assay (CellTiter-Glo, 72 h), SUDHL5. It is filed as cell-based. The following applies: IC50, median, SUDHL5, 72 h, read-out: Antiproli SUDHL5 [M] (median). A digest of the protocol: as §1
The subject of assay [2] is SUDHL5 cells. Briefly: Induction of caspase-3/7 activity (Caspase-Glo 3/7), SUDHL5. It is filed as cell-based. The following applies: EC50, median, SUDHL5, 3 h treatment. In outline: (§2)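 Caspase-3/7 activation measured by Caspase-Glo 3/7 after a 3 h compound exposure of diffuse large B-cell lymphoma cells at 37 °C. Values corrected by subtracting the medium-only background.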

For assay [3], the system named is SUDHL5 cells. Briefly: Induction of cytotoxicity (CellTiter-Glo, 5 h), SUDHL5. To be noted: Homo sapiens, SU-DHL-5, 5 h, read-out: Cytotox SUDHL5 [M] (median), IC50, median; SUDHL5, 5 h.
The target in another assay is MCL-1 (Homo sapiens (Human), UniProt Q07820, K194A/K197A/R201A). The assay can be described thus: Protein-protein interaction assay MCL-1/Noxa BH3 peptide (MCL-1 assay), TR-FRET. It is filed as binding. To be noted: IC50, median; MCL-1/Noxa BH3 TR-FRET. On the procedure:
The dose-dependent inhibition by the compounds described in this invention of the interaction between MCL-1 and the BH3 domain of Noxa (both human) was determined using a steady state binding competition assay with time-resolved fluorescence energy transfer (TR-FRET) readout. […] The MBP-MCL-1 was purchased from Beryllium (Bedford, Mass., USA). The expression and purification of this protein construct has been described elsewhere (DOI:10.1371/journal.pone.0125010). The Noxa BH3-derived peptide can be obtained from e.g. Biosyntan (Berlin, Germany), 50812.1.
For that, 100-fold concentrated DMSO solutions were prepared by serial dilutions (1:3.4) of a 2 mM stock solution in a clear, 384-well microtiter plate (Greiner Bio-One, Frickenhausen, Germany). From there, 50 nl were transferred in a dark test plate (Greiner Bio-One, Frickenhausen, Germany). […] This was followed by a 10-minute incubation step at 22° C. for pre-equilibration of the putative complex between MBP-MCL-1 and the compounds.
The mixture was incubated in the dark for one hour at 22° C. and then overnight at 4° C.
The resulting data (ratio) were normalized, taking 0% inhibition as the mean value of control measurements (usually 32 data points) where all reagents were included. In this case 50 nl DMSO were used instead of compounds. […] IC50 values were determined by regression analysis based on a 4 parameter equation (minimum, maximum, IC50, Hill; Y=Max+(Min−Max)/(1+(X/IC50)^Hill) using the Screener Software (Genedata).

For the next assay, the target named is MCL1 protein (Homo sapiens (Human), UniProt Q07820). Briefly: PIxEL: protein-protein interaction in permeabilized cells by ELISA (MCL1/biotin-BIM BH3 peptide, RKO cells). The class given is cell-based. The following applies: IC50, median, serum free. As to the method:
PIxEL: Protein-Protein Interaction in Permeabilized Cells by ELISA
Most MCL1 protein molecules are localized at the mitochondria outer membrane and sequester pro-apoptotic proteins through binding of their BCL2 homology domain 3 (BH3 domain). MEB buffer (150 mM mannitol, 10 mM HEPES pH 7.5, 50 mM KCl, 20 μM EDTA, 20 μM EGTA, 5 mM potassium succinate, 0.1% protease-free BSA (SIGMA) with low dose digitonin (0.002%) permeabilizes plasma membrane while leaves live mitochondria, where MCL1 maintains its native localization and conformation. Unlike biophysical assays (e.g. TR-FRET) that use truncated recombinant MCL1 protein, this assay uses full length endogenous MCL1 protein at mitochondria outer membrane. It measures the interaction between MCL1 protein and biotinylated BIM BH3 peptide. Compounds can compete with BIM BH3 peptide to bind to MCL1 protein.
On day 1, RKO colon cancer cell line cells were plated at 0.8 million cells/ml, 100 μl/well in 96-well flat bottom TC plates (Corning). MCL1 antibody (Santa Cruz sc-12756) were diluted at 200 fold (final concentration 1 μg/ml) in carbonate buffer (Thermo Fisher Scientific, pH 9.6), and 50 μl of diluted antibody was added to each well of high bind ELISA plates ([…]). Each plate was tapped to make sure liquid covering entire bottom of wells and incubate at 37° C. overnight.
On the second day, MCL1 antibody was washed from ELISA plate. 250 μl Odyssey® Blocking Buffer (PBS) (Li-Cor) was added to each well, incubated at room temperature for at least 1 hour, then washed once with 250 μl 1×PBST. Plates with RKO cells were gently washed once with 100 μl/well PBS, once with 100 μl/well MEB buffer without digitonin, then 100 μl of MEB buffer with 0.002% digitonin was gently added to each well. Compounds were added with HP Tecan compound dispenser in 3-fold dilution series, highest dose 30 μM, 10-dose per compound in quadruplicates. Biotin-BIM peptide (synthesized by 21st Century) was added with HP Tecan compound dispenser at 0.2 μM immediately after the addition of compounds. Plates were rocked for 1 hour at room temperature. Then MEB buffer was aspirated and 50 μl of CHAPS buffer (50 mM Tris-Cl, pH 7.4, 150 mM NaCl, 1% CHAPS, 1 mM EDTA, 1 mM EGTA, cOmplete protease inhibitors (Roche), PhosSTOP (Roche)) was added to each well. Plates were rocked for 1 hour at 4° C., then 45 μl cell lysate from each well were transferred to ELISA plates coated with MCL1 antibody. Plates were incubated overnight in the cold room with rocking.
On the third day, ELISA plates were washed once with 250 μl 1×PBST. Streptavidin-poly-HRP (Thermo Fisher Scientific) was diluted to 20 ng/ml in Odyssey blocking buffer plus 0.05% Triton-100, and 100 μl was added to each well of the ELISA plate. Plates were incubated at RT from 1 hour with rocking, then washed with 100 μL 1×PBST for 3 times. Each SuperSignal ELISA Femto Maximum Sensitivity substrate was added to a 50-ml tube and mixed, then 100 μl of mixed substrate was added to each well. Plates were shaken for 1 minute then luminescence was measured by Envision plate reader […]. Signal of each well were normalized by no-compound control and no-cell control. IC50 was calculated using Graphic Pad PRISM software.
(An ELISA detects its analyte on a solid surface through an enzyme-linked reagent.)

The subject of assay [4] is SUDHL10 cells. The assay can be described thus: Induction of caspase-3/7 activity (Caspase-Glo 3/7), SUDHL10. The class given is cell-based. The following applies: EC50, median; SUDHL10, 3 h treatment; listed as 082. In outline: as §2
For another assay, the system named is HMC-1-8 cells. The assay can be described thus: Antiproliferation assay (CellTiter-Glo, 72 h), HMC-1-8. It is filed as cell-based. The following applies: IC50, median, HMC-1-8, 72 h, read-out: Antiproli HMC-1-8 [M] median. A digest of the protocol:
as §1

For assay [5], the system named is SUDHL10 cells. Briefly: Induction of cytotoxicity (CellTiter-Glo, 5 h), SUDHL10. To be noted: Homo sapiens, SU-DHL10, 5 h, read-out: Cytotox SUDHL10 [M] (median), IC50, median; SUDHL10, 5 h.
For the next assay, the system named is DMS-114 cells. Briefly: Antiproliferation assay (CellTiter-Glo, 72 h), DMS-114. It is filed as cell-based. To be noted: Homo sapiens, DMS-114, 72 h; read-out: Antiproli DMS-114 [M] median. As to the method:
(§3) Assessment of the Anti-Proliferative Effect of Compounds in Different Cell Lines
(§4) The impact of compounds on the proliferation of different cell lines was assessed using the CellTiter-Glo® Luminescent Cell Viability reagent from Promega (G7573).
(§5) In parallel, cells were plated in a reference (day 0) plate for time zero determination.
(§6) Rim wells were excluded. The cells were incubated for 72 h hours in a humidified incubator at 37° C. The day 0 plate was measured by adding 30 μL/well of CTG solution (CellTiter-Glo® Luminescent Cell Viability reagent, Promega G7573) to time zero wells in the reference plate followed by a 10 minutes incubation and luminescence reading at 0.1 ms. using the PHERAstar FS microplate reader (BMG Labtech).
(§7) After 72 h incubation, the treated plates were measured in the same way as the day 0 plate mentioned above.

Another assay deals with SNU-389 cells. The assay can be described thus: Antiproliferation assay (CellTiter-Glo, 72 h), SNU-389. It is filed as cell-based. To be noted: 72 h; read-out: Antiproli SNU-389 [M] median. As to the method: as §3, §4, §5, §6, §7

Where two headings read alike, the source gives them in different places.

Sequence of MCL-1 (Q07820 whole entry K194A/K197A/R201A, looked up, the tested form may be a part): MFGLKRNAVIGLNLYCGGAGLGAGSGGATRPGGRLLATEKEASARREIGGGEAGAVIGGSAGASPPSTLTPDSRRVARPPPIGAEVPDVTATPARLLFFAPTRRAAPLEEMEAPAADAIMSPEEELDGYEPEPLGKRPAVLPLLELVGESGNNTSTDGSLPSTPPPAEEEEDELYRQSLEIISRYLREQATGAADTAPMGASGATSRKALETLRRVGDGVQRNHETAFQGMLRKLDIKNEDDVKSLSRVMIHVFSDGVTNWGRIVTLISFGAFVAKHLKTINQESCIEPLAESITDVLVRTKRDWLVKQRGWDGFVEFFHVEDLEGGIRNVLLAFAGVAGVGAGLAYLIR
Sequence of MCL1 protein (Q07820 whole entry): as the sequence (Q07820 whole entry K194A/K197A/R201A, looked up, the tested form may be a part) above, with A194K, A197K, A201R counted along it

For orientation: EC50 means the midpoint of the concentration-response curve. A high value points to a need for much substance. Regarding `Cc1c2c(nn1C)COCC1CC1Cn1c(C(=O)O)c(CCCOc3cccc4ccccc34)c3ccc(Cl)c-2c31` (single isomer, unassigned) [Example 82, 3-chloro-4,5-dimethyl-14-{3-[(naphthalen-1-yl)oxy]propyl}-5,7,9a,10,10a,11-hexahydro-9H-cyclopropa[3,4]pyrazolo[4′,3′:9,10][1,6]oxazacycloundecino[8,7,6-hi]indole-13-carboxylic acid], the IC50 in the assay with AMO-1 cells (listed as 082) came to 2.9e-06 M; in the assay on SUDHL5 cells [1] (Homo sapiens, SU-DHL-5, 72 h), 8.1e-07 M; with SUDHL5 cells [3], 4.9e-07 M; at MCL-1, 0.0016 µM; at MCL1 protein, 0.225 µM. Besides, the EC50 in the assay on SUDHL5 cells [2] (listed as 082) was found to be 0.49 µM; in the assay on SUDHL10 cells [4] it was 1.1 µM.

Regarding `Cc1c2c(nn1C)CN(C)CCCCn1c(C(=O)O)c(CCCOc3cccc4cc(F)ccc34)c3ccc(Cl)c-2c31` (racemic) [Example 30, (rac)-4-chloro-7-{3-[(6-fluoronaphthalen-1-yl)oxy]propyl}-2,3,14-trimethyl-10,11,12,13,14,15-hexahydro-2H-pyrazolo[3′,4′:8,9][1,6]diazacycloundecino[10,11,1-hi]indole-8-carboxylic acid], the IC50 with AMO-1 cells (Homo sapiens, AMO1, 72 h) stood at 4.2e-07 M; with HMC-1-8 cells (72 h) it was 1.6e-06 M; on MCL1 protein it was 0.227 µM.

With `Cc1c2c(nn1C)COCC1CC1Cn1c(C(=O)O)c(CCCOc3cccc4ccccc34)c3ccc(Cl)c-2c31` (single isomer, unassigned; stereoisomer 1) [Example 65, (9aS,10aR or 9aR,10aS)-3-chloro-4,5-dimethyl-14-{3-[(naphthalen-1-yl)oxy]propyl}-5,7,9a,10,10a,11-hexahydro-9H-cyclopropa[3,4]pyrazolo[4′,3′:9,10][1,6]oxazacycloundecino-[8,7,6-hi]indole-13-carboxylic acid—Stereoisomer 1], the IC50 with AMO-1 cells (Homo sapiens, AMO1, 72 h) was 6e-07 M; in the assay on SUDHL5 cells [1] (Homo sapiens, SU-DHL-5, 72 h), 2.7e-07 M; in the assay with SUDHL5 cells [3], 3.3e-07 M; on MCL-1 it was 0.0027 µM; with HMC-1-8 cells it was 2.5e-06 M; against MCL1 protein it was 0.752 µM. For the same compound, a half-maximal response in the assay on SUDHL5 cells [2] (Homo sapiens, SU-DHL-5, 3 h) (EC50) required 0.27 µM.

With `Cc1c2c(nn1CCCN1CCN(C)CC1)COCCCCn1c(C(=O)O)c(CCCOc3cccc4ccccc34)c3ccc(Cl)c-2c31` (single isomer, unassigned; enantiomer 1) [Example 49, (+)-4-chloro-3-methyl-2-[3-(4-methylpiperazin-1-yl)propyl]-7-{3-[(naphthalen-1-yl)oxy]propyl}-2,10,11,12,13,15-hexahydropyrazolo[4′,3′:9,10][1,6]oxazacycloundecino[8,7,6-hi]indole-8-carboxylic acid (Enantiomer 1)], the IC50 in the assay with SUDHL10 cells [5] was 1e-06 M; in the assay with AMO-1 cells (Homo sapiens, AMO1, 72 h) it was 1.5e-06 M; at MCL-1 it was 0.0017 µM; against MCL1 protein, 0.436 µM.

For `Cc1c2c(nn1C)COCC1CC1Cn1c(C(=O)O)c(CCCOc3cccc4ccccc34)c3ccc(Cl)c-2c31` (single isomer, unassigned; stereoisomer 2) [Example 66, (9aR,10aS or 9aS,10aR)-3-chloro-4,5-dimethyl-14-{3-[(naphthalen-1-yl)oxy]propyl}-5,7,9a,10,10a,11-hexahydro-9H-cyclopropa[3,4]pyrazolo[4′,3′:9,10][1,6]oxazacycloundecino-[8,7,6-hi]indole-13-carboxylic acid—Stereoisomer 2], the IC50 was found to be 3.15e-07 M with DMS-114 cells; 1.4e-07 M with SUDHL10 cells [5]; 1e-06 M in the assay with HMC-1-8 cells; 1.74 µM at MCL1 protein; 5.76e-07 M with SNU-389 cells.

On to `CCc1c2c(nn1C)CN(CCN1CCOCC1)CCCCn1c(C(=O)O)c(CCCOc3cccc4cc(F)ccc34)c3ccc(Cl)c-2c31` (single isomer, unassigned; enantiomer 2) [Example 143, 4-chloro-3-ethyl-7-{3-[(6-fluoronaphthalen-1-yl)oxy]propyl}-2-methyl-14-[2-(morpholin-4-yl)ethyl]-10,11,12,13,14,15-hexahydro-2H-pyrazolo[3′,4′:8,9][1,6]diazacycloundecino[10,11,1-hi]indole-8-carboxylic acid (Enantiomer 2)], for which the IC50 came to 9.4e-06 M in the assay with SUDHL5 cells [1] and 0.062 µM on MCL-1.
